Data set [1] in a line: Plasma stability determination in mouse plasma. The class given is in vitro ADME. As to the method:
Plasma stability determination. The degradation of TR001 in the presence of mouse plasma (from Innovative Research) was used to predict the plasma stability of the compound to esterase catalyzed hydrolysis. A positive control for plasma cholinesterase, propantheline bromide, was included in all assays. Briefly, murine plasma was incubated with 1 μm TR001. Aliquots were removed at t=0, 5, 15, 30, and 60 and 120 min and quenched with acetonitrile containing structurally related compound (TR073) as the internal standard. The amount of TR001 remaining in the supernatant was assessed by LC-MS/MS in multiple reaction monitoring mode (MRM) using a 4000 QTRAP (SCIEX) with electrospray ionization source. The instrument was operated in negative mode with source parameters: source voltage […], GS1 50, GS2 50, CUR 30, TEM 650 and CAD gas MED. Optimal MRM transitions were obtained by direct infusion of the pure compound into the source. The mass spectrometer was interfaced to a Shimadzu (Columbia, MD) SIL-20AC XR auto-sampler maintained at 35° C. followed by 2 LC-20AD XR LC pumps. The internal standard and compound of interest were resolved using a Gemini-NX C18 50×2.1 mm column (Phenomenex) with 0.1% formic acid (solvent A) and 0.1% formic acid in acetonitrile (solvent B). The injection volume was 10 μL at a flow rate of 0.75 mL/min. The gradient elution was 10% B to 95% B over 5 min and held at 95% for 1 min before returning to start conditions. The column was maintained at 40° C. using a Shimadzu CTO-20AC column oven. Data were acquired using Analyst 1.6.2 and analyzed using Multiquant 3.0.1 software. The first-order rate constant for substrate depletion was determined from a linear least squares fit of the natural log of the percent parent compound remaining versus time. The rate constant was used to calculate the plasma half-life as an indicator of stability.

Data set [2] relates to col6a1 zebrafish morphants. In words: Spontaneous coiling events in col6a1 zebrafish morphants. The class given is in vivo. To be noted: 24 hpf, 3 hours of treatment, 0.1, 1 or 10 μm. As to the method: Zebrafish embryos were injected with col6a1 morpholino at the 1-cell stage, dechorionated at 20 hpf and treated at 21 hpf with 0.1, 1 or 10 μm of either TR001 or 63. DMSO-treated embryos injected with a scrambled morpholino were used as a control. […] It should be noted that in these protocols, embryos were exposed to drugs for a longer period of time than in the spontaneous coiling experiments. This difference may help to explain why TR001 was as effective at 0.1 μm as it was at 1 and 10 μm.
(§1) Morpholino antisense injection and treatment. Knock-down of col6a1 gene expression was obtained with a previously published morpholino ^[25] with sequence GAGAGCGGAAGACGAACCTTCATTC (SEQ ID NO: 2; GeneTools, Inc.). A control morpholino with no sequence homology in the zebrafish genome was used in parallel (CCTCTTACCTCAGTTACAATTTATA; SEQ ID NO: 3). […]
Motor activity. The number of spontaneous coiling events performed in 15 seconds by single zebrafish embryos was recorded at 24 hpf by light microscopy. Touch-evoked escape responses were recorded at 48 hpf by observing the ability of zebrafish embryos to escape after a tail-touch with a little tip. […]

The subject of data set [3] is col6a1 zebrafish morphants. In words: OCR measurement on entire col6a1 morphant zebrafish embryos. Particulars: 48 hpf, 10 μm. The class given is in vivo.
Text: To test the effects of both TR001 and 63 on the respiration of col6a1 morphant embryos, we measured the OCR on entire embryos at 48 hpf. […] Moreover, TR001 at a concentration of 10 μm was able to fully restore the maximal respiratory capacity (FIG. 6D, left panel, open diamonds, p<0.001) of col6a1 morphants.
as §1, with “3). Zebrafish eggs from wild-type matings were injected at the 1-2 cell stage with approximately 10 nL of 0.1 mm morpholino solution (corresponding to 4 ng of morpholino) using a WPI pneumatic PicoPump PV820 injector (World Precision Instruments, Inc.).” for “3).”
OCR measurement. […] First, basal respiration was measured. Second, respiration due to ATP synthase was measured after addition of 10 μm oligomycin (Merck Millipore-495455). Third, maximal respiration capacity was measured by adding 2 μm of the uncoupler carbonyl cyanide-4-(trifluoromethoxy)phenylhydrazone (FCCP, Sigma-Aldrich, C2920). […]

Experimental findings from US12398110B2, “Second generation inhibitors of mitochondrial permeability transition pore with improved plasma stability” (Oregon Health & Science University, priority 2019, dated 2025) are described below.

As to `Cc1ccc(Cl)cc1NC(=O)c1cn(-c2ccc(F)c(O)c2)nn1` [TR001, N-(5-chloro-2-methylphenyl)-1-(4-fluoro-3-hydroxyphenyl)-1H-1,2,3-triazole-4-carboxamide], in data set [1] (TR001 vs 63), the “fold increase in plasma stability compared to 63” value is recorded as 47 fold. Besides, the half-life at 1 µM in data set [1] (mouse, read-out: Mouse Plasma t1/2) is 16.5 h. For the same compound, the spontaneous coiling events entry in data set [2] is listed as “partially rescued the defect”. In addition, in data set [3], the “maximal respiratory capacity (OCR) of col6a1 morphants” value was “fully restore”.
